# Results published in ChEMBL document CHEMBL1131357, “New bronchodilators selected by molecular topology” (1998).
# Assays:
# Type in all cases: functional
# Cavia porcellus [1] = species on record: Cavia porcellus; experiment: Percent relaxation using isolated guinea pig trachea.
# Cavia porcellus [2] = species on record: Cavia porcellus; experiment: Percent relaxation of isolated guinea pig trachea.
# Cavia porcellus [3] = species on record: Cavia porcellus; experiment: Compound was evaluated for the percent of relaxation using isolated guinea pig trachea
# Cavia porcellus [4] = species on record: Cavia porcellus; experiment: Compound was evaluated for the percent of relaxation using isolated guinea pig trachea at a dose of 1 mM
# Cavia porcellus [5] = species on record: Cavia porcellus; experiment: pD2 value (pD2 = -log EC50) was calculated using indometazine in guinea pig trachea
Structure (SMILES),Relaxation (Cavia porcellus [1]),pD2 (Cavia porcellus [2]),Relaxation (Cavia porcellus [3]),Emax at 1000 µM (Cavia porcellus [4]),pD2 (Cavia porcellus [5])
N#Cc1ccc2c(c1)S(=O)(=O)c1ccccc1C2=O,13%,4.53,,,
C[C@]12CCC(=O)C=C1CCCC2=O,22%,4.5,,,
Cc1ccc(S(=O)(=O)N2CCCSCC2)cc1,0%,,,,
Cn1c(=O)c2nc[nH]c2n(C)c1=O.O [THEOPHYLLINE],,4.69,77.1%,100%,
Cc1occc(=O)c1O [MALTOL],16%,5.25,,,
COC1=CC(=O)C[C@@H](C)[C@]12Oc1c(Cl)c(OC)cc(OC)c1C2=O [GRISEOFULVIN],74%,4.8,,,
Nc1nccs1 [AMINOTHIAZOLE],19%,4.4,,,
COC(=O)C1C2CCC(O2)C1C(=O)OC (stereo not drawn),28%,4.8,,,
O=S1(=O)OC(c2cc(Br)c(O)c(Br)c2)(c2cc(Br)c(O)c(Br)c2)c2ccccc21 [BROMOPHENOL BLUE],51%,4.5,,,
C[n+]1cc2c3c(ccc2c2ccc4cc5c(cc4c21)OCO5)OCO3 [SANGUINARIUM],-89%,,,,
NC(=O)c1ccc2c(c1)S(=O)(=O)c1ccccc1C2=O,18%,5.69,,,
O=C(CN1CCNCC1)N1CCCC1,59%,4.6,,,
CCCCC1C(=O)N(c2ccccc2)N(c2ccccc2)C1=O [PHENYLBUTAZONE],28%,,,,4.69
Oc1ccc2c(O)c3ccccc3cc2c1O [ANTHRAROBIN],92%,5.69,,,
O=C(O)c1ccc2c(c1)S(=O)(=O)c1ccccc1C2=O,85%,4.65,,,
CCn1cc(C(=O)O)c(=O)c2cnc(N3CCCC3)nc21 [PIROMIDIC ACID],25%,5.3,,,
Cc1c(C2(c3cc(Br)c(O)c(Br)c3C)OS(=O)(=O)c3ccccc32)cc(Br)c(O)c1Br [BROMCRESOL GREEN],21%,4.5,,,
O=C1c2ccccc2S(=O)(=O)c2cc(-c3nn[nH]n3)ccc21 [DOXANTRAZOLE],91%,5.5,,,
Cc1c(C(C)C)c(=O)n(-c2ccccc2)n1C [PROPYPHENAZONE],29%,5.69,,,
CN1C(C(=O)Nc2ccccn2)=C(O)c2sccc2S1(=O)=O [TENOXICAM],32%,,,,5.2
Cc1nc2c(o1)CC1C=CC=CC1=CC2O (stereo not drawn),37%,4.8,,,
O=C(O)c1cn(C2CC2)c2cc(N3CCNCC3)c(F)cc2c1=O [CIPROFLOXACIN],0%,,,,
OC(Cn1cncn1)(Cn1cncn1)c1ccc(F)cc1F [FLUCONAZOLE],-51%,,,,
CCN(CC)c1ccc2nc3c4ccccc4c(=O)cc-3oc2c1 [NILE RED],0%,,,,
CC(=O)CC(c1ccc([N+](=O)[O-])cc1)c1c(O)c2ccccc2oc1=O (stereo not drawn) [ACENOCOUMAROL],69%,4.55,,,
CCn1cc(C(=O)O)c(=O)c2cc(F)c(N3CCNCC3)cc21 [NORFLOXACIN],0%,,,,
CCCCC(CC)CN1CN(CC(CC)CCCC)CC(C)(N)C1 (stereo not drawn) [HEXETIDINE],-94%,,,,
